{"source": "patent US7736624B2", "about": "“Methods and compositions for diagnostic and therapeutic targeting of COX-2” (priority 2006, dated 2010)", "key": {"[1]": {"tested_on": "RAW264.7 cells", "assay": "In vitro cell imaging, LPS/IFNγ-activated RAW264.7 cells", "format": "cell-based, mouse", "conditions": "for fluorescence imaging of cells: 200 nM, 30 minutes, LPS-activated RAW264.7; for fluorescent signal after indomethacin pretreatment: indomethacin (20 μM) pretreatment, RAW264.7", "method": "RAW264.7 cells (a line established from a tumor induced in a mouse by Abelson murine leukemia virus and available from the American Type Culture Collection, Manassas, Va., United States of America) were grown overnight on 35 mm culture dishes (MatTek Corp., Ashland, Mass., United States of America) with glass coverslips in Dulbecco's Modified Eagle Medium (DMEM) plus 10% heat-inactivated fetal bovine serum (FBS). Platings of cells were done in order to reach 30% confluency the next day. After overnight growth, the growth medium was replaced with 2 ml serum-free DMEM per dish. Individual dishes then received 200 ng/ml LPS plus 10 units/ml murine IFNγ (Roche Applied Science, Indianapolis, Ind., United States of America) for 6 hours to induce COX-2. […] After 30 minutes, the cells were washed briefly three times in medium and incubated in Hank's balanced salt solution (HBSS)/Tyrode's for 60 minutes at 37° C. After 60 minutes, the HBSS/Tyrode's was removed and fresh HBSS/Tyrode's was added. The cells were immediately imaged using a Zeiss Axiovert 25 Microscope (propidium iodide filter/2-3 sec exposure/gain of 2)."}, "[2]": {"tested_on": "COX-2-transformed HEK293 cells", "assay": "In vitro cell imaging, HEK293 cells expressing human COX-2", "format": "cell-based", "conditions": "HEK293/COX-2; for fluorescent staining of cells: 200 nM; for fluorescent staining after indomethacin pretreatment: indomethacin (20 μM) pretreatment", "method": "A second experimental design employed HEK293 cells (a cell line generated by transformation of human embryonic kidney cell cultures with adenovirus) that had been transformed with an expression construct encoding a constitutively active human COX-2. For imaging experiments, cells were also plated on 35 mm culture dishes (MatTek Corp., Ashland, Mass., United States of America) with glass coverslips and grown to 70% confluency in DMEM plus 20% FBS. When the appropriate confluency was reached (approximately 48 hours after plating), the medium was replaced with DMEM/1% FBS and exposed to 200 nM Compound 27vv or Compound 27ww as described hereinabove. After 30 minutes, the cells were washed briefly 3 times and incubated in DMEM/10% FBS for 60 minutes at 37° C. After 60 minutes, the medium was removed and the cells were washed with HBSS/Tyrode's. After the second wash, fresh HBSS/Tyrode's was added and the cells were immediately imaged using a Zeiss Axiovert 25 Microscope (propidium iodide filter/3 sec exposure/gain of 3)."}, "[3]": {"tested_on": "1483 Head/Neck Squamous Cell Carcinoma Cells", "assay": "In vitro cell imaging, 1483 Head/Neck Squamous Cell Carcinoma Cells", "format": "cell-based", "conditions": "1483 cells"}, "[4]": {"tested_on": "liver tumors from SW620 cells", "assay": "In vivo imaging of nude mice with liver metastases of SW620 cells", "conditions": "5 mg/kg i.p.", "from_the_text": "Nude mice with liver tumors from SW620 cells (a human colorectal adenocarcinoma cell line that expresses a low level of COX-2 and that is available from ATCC) were obtained from Dr. Ray DuBois of the Vanderbilt-Ingram Cancer Center of Vanderbilt University (Nashville, Tenn., United States of America). Mice were obtained about 8-10 weeks after metastasis of the cells from the spleen. Control mice and mice bearing and tumor metastases were anesthetized and injected intraperitoneally (i.p.) with 5 mg/kg Compound 27vv. Images of injected mice were captured by a XENOGEN® IVIS® Imaging System (Xenogen Corp., Alameda, Calif., United States of America) using a Cy5.5 filter or a DsRed filter (1 second exposure/f2/high resolution/1.5 cm depth). […] At 5 hours post-injection, mice were euthanized and liver tumors were imaged by fluorescence microscopy."}, "[5]": {"tested_on": "HCA7 colorectal adenocarcinoma cells", "assay": "In vivo imaging of nude mice xenografted with HCA7 cells", "conditions": "HCA7 subcutaneous xenograft", "from_the_text": "In parallel experiments, nude mice were xenografted with a subcutaneous injection on a lateral side of 1×10^6. HCA7 colorectal adenocarcinoma cells (Marsh et al. (1993) J Pathol 170:441-450)."}, "[6]": {"assay": "Amounts of intact compound in tumors and normal tissues by HPLC-UV/MS", "format": "in vivo, Nude mice", "from_the_text": "Additionally, the presence of intact Compound 27vv in tumors and normal tissues were examined by high performance liquid chromatography (HPLC) and mass spectroscopy (MS). Tumors and other tissues were collected from treated mice and immediately frozen on dry ice. Tissues were homogenized in Tris buffer (pH=7.4) and proteins precipitated with acetonitrile (ACN). Protein pellets were collected by centrifugation and dried before reconstitution in Tris buffer pH 7.4 plus 10% methanol. Proteins were purified by reverse-phase solid=phase extraction (RP-SPE) and analyzed by HPLC-UV using the conditions set forth in Table 4:\nA standard curve was generated for Compound 27vv between 1 and 15 nmoles. Linear regression analysis generated an equation for the resulting line of y=311624x+85461 (R^2=0.9956). Various normal and tumor samples were then analyzed and the amounts of Compound 27vv present in the samples were determined.\nThe putative Compound 27vv peak in the tumor samples was collected and analyzed by LCMS in order to verify its identity."}}, "note": "Entries after “also recorded” stand apart in the source; their conditions may differ.", "data": [{"molecule": "COc1ccc2c(c1)c(CC(=O)NCCCCNC(=O)c1ccc(C3=c4cc5c6c(c4Oc4c3cc3c7c4CCCN7CCC3)CCC[N+]=6CCC5)c(C(=O)[O-])c1)c(C)n2C(=O)c1ccc(Cl)cc1", "note": "[Compound 27eee]", "values": [{"measurement": "fluorescence imaging of cells", "setting": "[1]", "result": "good specific staining; also recorded: consistent fluorescent signals over control cells"}, {"measurement": "fluorescent signal after indomethacin pretreatment", "setting": "[1]", "result": "reducible by pretreatment with indomethacin"}, {"measurement": "fluorescent staining of cells", "setting": "[2]", "result": "good specific staining; also recorded: fluorescence above the level observed in control HEK293 cells"}, {"measurement": "fluorescent staining after indomethacin pretreatment", "setting": "[2]", "result": "reducible by pretreatment with indomethacin"}, {"measurement": "fluorescent staining of cells", "setting": "[3]; 200 nM", "result": "good specific staining; also recorded: considerable fluorescence"}, {"measurement": "fluorescent staining after indomethacin pretreatment", "setting": "[3]; indomethacin pretreatment", "result": "reducible by pretreatment with indomethacin"}]}, {"molecule": "COc1ccc2c(c1)c(CC(=O)NCCCCNC(=O)c1ccc(C(=O)[O-])c(C3=c4cc5c6c(c4Oc4c3cc3c7c4CCCN7CCC3)CCC[N+]=6CCC5)c1)c(C)n2C(=O)c1ccc(Cl)cc1", "note": "[Compound 27vv]", "values": [{"measurement": "fluorescence imaging of cells", "setting": "[1]", "result": "LPS activation enhanced imaging; also recorded: consistent fluorescent signals over control cells"}, {"measurement": "fluorescent signal after indomethacin pretreatment", "setting": "[1]", "result": "reduced the fluorescent signal"}, {"measurement": "fluorescent staining of cells", "setting": "[2]", "result": "clearly observable fluorescent staining; also recorded: fluorescence above the level observed in control HEK293 cells"}, {"measurement": "fluorescent staining after indomethacin pretreatment", "setting": "[2]", "result": "reduced"}, {"measurement": "in vivo fluorescence imaging", "setting": "[4]; 30 minutes and 3-4 hours post-injection", "result": "liver-specific imaging"}, {"measurement": "fluorescence microscopy of excised liver tumors", "setting": "[4]; 5 hours post-injection", "result": "strongly fluoresced"}, {"measurement": "tumor fluorescence in vivo and after removal of tumor masses", "setting": "[5]", "result": "strong tumor-specific fluorescence"}, {"measurement": "intact compound in SW620 tumors", "setting": "[6]; 5 hours post-injection, HPLC and MS", "result": "confirmed the presence of intact Compound 27vv"}, {"measurement": "level in normal liver tissue", "setting": "[6]; HPLC and MS", "result": "below the limit of detection"}, {"measurement": "Amount of Compound 27vv in sample", "setting": "[6]; Mouse 1 - giant tumor A", "result": 3.3, "unit": "nmol"}, {"measurement": "Compound 27vv", "setting": "[6]; Mouse 1 - giant tumor A", "result": 31.1, "unit": "nmol/g"}, {"measurement": "Amount of Compound 27vv in sample", "setting": "[6]; Mouse 1 - giant tumor B", "result": 1.8, "unit": "nmol"}, {"measurement": "Compound 27vv", "setting": "[6]; Mouse 1 - giant tumor B", "result": 15.3, "unit": "nmol/g"}, {"measurement": "Amount of Compound 27vv in sample", "setting": "[6]; Mouse 1 - giant tumor C", "result": 4.7, "unit": "nmol"}, {"measurement": "Compound 27vv", "setting": "[6]; Mouse 1 - giant tumor C", "result": 41.1, "unit": "nmol/g"}, {"measurement": "Amount of Compound 27vv in sample", "setting": "[6]; Mouse 1 - giant tumor D", "result": 0.2, "unit": "nmol"}, {"measurement": "Compound 27vv", "setting": "[6]; Mouse 1 - giant tumor D", "result": 0.9, "unit": "nmol/g"}, {"measurement": "Compound 27vv nmol/g", "setting": "[6]; Mouse 2 - normal liver lobe", "result": "<Std. A"}, {"measurement": "Compound 27vv nmol/g", "setting": "[6]; Mouse 2 - small tumor", "result": "<Std. A"}, {"measurement": "Compound 27vv nmol/g", "setting": "[6]; Mouse 2 - tissue between the lobes", "result": "<Std. A"}]}]}
